Assay results from US20220400680A1, “USE OF ACYLCYANAMIDES OR SALTS THEREOF FOR REGULATING PLANT GROWTH” (Alzchem Trostberg GmbH, priority 2019, published 2022).

Columns and labels:
[1] = test system: Table apple, type Boiken apple (C1); experiment: Greenhouse test, cut apple branches C1 dipped in test solution, bud development stage; format: in vivo, Malus domestica; set-up: key to Bud development stage, apple branches C1: Stage 0: Buds unchanged; Stage 1: Buds slightly swollen, first green tips visible; Stage 2: strongly swollen, green buds; Stage 3: Buds before breaking open, leaf or flower root already visible; Stage 4: Flower buds fully developed, but still closed, white petals already visible. In the case of the grapevine, stage 4 was the unfolding of the first leaves; Stage 5: Flowers fully open or, in the case of grapevine, unfolding of the flower roots (“Gescheine”) on the fully leafed sprouts
In short: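 Cut Boiken apple branches kept in water jars in a greenhouse at about 22 °C under natural light and dipped in test solution. Solutions contained 0.15 mol test substance (0.075 mol for bis-cyanamides) plus 0.15 g BreakThru OE-446 per 500 g water. Bud development scored on a stage scale up to full flowering.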

[2] = test system: Table apple, type Zabergäu-Renette (C2); experiment: Greenhouse test, cut apple branches C2 dipped in test solution, bud development stage; format: in vivo, Malus domestica; set-up: key to Bud development stage, apple branches C2: Stage 0: Buds unchanged; Stage 1: Buds slightly swollen, first green tips visible; Stage 2: strongly swollen, green buds; Stage 3: Buds before breaking open, leaf or flower root already visible; Stage 4: Flower buds fully developed, but still closed, white petals already visible. In the case of the grapevine, stage 4 was the unfolding of the first leaves; Stage 5: Flowers fully open or, in the case of grapevine, unfolding of the flower roots (“Gescheine”) on the fully leafed sprouts
In short: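 Cut branches held in water jars in a greenhouse at about 22° C. under natural light after dipping in aqueous test solution: 0.15 mol substance (0.075 mol for bis-cyanamides) plus 0.15 g BreakThru OE-446 per 500 g. Bud development scored on a stage scale from closed buds to fully open flowers.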

[3] = test system: Table cherry, type Burlat (C3); experiment: Greenhouse test, cut cherry branches C3 dipped in test solution, bud development stage; format: in vivo, Prunus avium; set-up: key to Bud development stage, cherry branches C3: Stage 0: Buds unchanged; Stage 1: Buds slightly swollen, first green tips visible; Stage 2: strongly swollen, green buds; Stage 3: Buds before breaking open, leaf or flower root already visible; Stage 4: Flower buds fully developed, but still closed, white petals already visible. In the case of the grapevine, stage 4 was the unfolding of the first leaves; Stage 5: Flowers fully open or, in the case of grapevine, unfolding of the flower roots (“Gescheine”) on the fully leafed sprouts
In short: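 Cut branches kept in water jars in a greenhouse at about 22° C. under natural light after dipping in aqueous solution of 0.15 mol test substance (0.075 mol for bis-cyanamides) plus 0.15 g BreakThru OE-446 per 500 g. Bud development scored on a stage scale from closed buds to fully open flowers.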

[4] = test system: table grapes types Bordon AR and Hammar AR; experiment: Field test E3 table grapes India, bud burst; set-up: species or system Vitis vinifera; settings: in vivo
Experimental: Three sections of a table grape plantation in India with types Bordon AR and Hammar AR were treated with the following spray mixtures during the dormancy phase:
E3-0: 600 liters per hectare of water with an addition of 0.1% Break-Thru® OE-446 E3-1: 600 liters per hectare of the spray mixture from example D-1 E3-18: 600 liters per hectare of the spray mixture from example D-18
As a result, the grapevine sprouts were evenly wetted.
After 30 and 45 days, respectively, bud burst was recorded numerically.
Budding means number of buds that have developed at least one leaf after n days, based on the total number of buds on the sprouts at time n=0 days (day of application of spray mixture).

[5] = T1 (14 d), 0.15 mol (A-14, A-15: 0.075 mol) per 500 g solution
[6] = stage 4 reached or exceeded after 36 days vs negative control

## CC(=O)NC#N.[Na] [Example A-1, Sodium Acetylcyanamide]
[1]; [5]
  Bud development stage, apple branches C1: 0
[1]; T2 (16 d)
  Bud development stage, apple branches C1: 0
[1]; T3 (21 d)
  Bud development stage, apple branches C1: 2
[1]; T4 (27 d)
  Bud development stage, apple branches C1: 3
[1]; T5 (36 d)
  Bud development stage, apple branches C1: 5
[1]; T6 (56 d)
  Bud development stage, apple branches C1: 5
[1]; [6]
  Dormancy-breaking effect according to the definition, apple C1: dormancy-breaking effect
[2]; [5]
  Bud development stage, apple branches C2: 0
[2]; T2 (16 d)
  Bud development stage, apple branches C2: 0
[2]; T3 (21 d)
  Bud development stage, apple branches C2: 1
[2]; T4 (27 d)
  Bud development stage, apple branches C2: 3
[2]; T5 (36 d)
  Bud development stage, apple branches C2: 5
[2]; T6 (56 d)
  Bud development stage, apple branches C2: 5
[2]; [6]
  Dormancy-breaking effect according to the definition, apple C2: dormancy-breaking effect
[3]; [5]
  Bud development stage, cherry branches C3: 1
[3]; T2 (16 d)
  Bud development stage, cherry branches C3: 2
[3]; T3 (21 d)
  Bud development stage, cherry branches C3: 5
[3]; T4 (27 d)
  Bud development stage, cherry branches C3: 5
[3]; T5 (36 d)
  Bud development stage, cherry branches C3: 5
[3]; T6 (56 d)
  Bud development stage, cherry branches C3: 5
[3]; stage 4 reached or exceeded after 21 days vs negative control
  Good to very good dormancy-breaking effect, cherry C3: good to very good dormancy-breaking effect
[3]; stage 4 reached or exceeded after 27 days vs negative control
  Dormancy-breaking effect according to the definition, cherry C3: dormancy-breaking effect
[4]
  Effectiveness compared with prior art treatment with cyanamide: at least as effective as the prior art treatment with cyanamide
